{"source": "patent US5565448A", "about": "“Medicament” (SmithKline Beecham Corporation, priority 1994, dated 1996)", "key": {"[1]": {"system": "rat cerebellar granule cells", "assay": "Inhibition of glutamate-induced neurotoxicity in rat cerebellar granule cells", "format": "cell-based", "text": "The effect of compounds of Formula (I) in this assay is examined using the protocol in Lysko, et al, Brain Research, 499:258 (1989)."}, "TNF": {"system": "TNF", "assay": "Endotoxic shock model: TNF production and survival in endotoxin-treated rats", "format": "in vivo, rat", "text": "6, 1991 and in Hanna, Patent Cooperation Treaty Application Number WO 90/15534, published Dec. 27, 1990."}, "hindpaw inflammation": {"system": "hindpaw inflammation", "assay": "Adjuvant-induced arthritis in Lewis rats", "format": "in vivo", "details": "Rattus norvegicus, ip; AA Lewis rats, daily intraperitoneal administration; read-out: ED50, suppression of hindpaw inflammation", "experimental": "Adjuvant-induced arthritis (AA) was produced in Lewis rats by a single intradermal injection of 0.75 mg of Mycobacterium butyricum in light paraffin oil, into the base of the tail. The adjuvant arthritis occurs after a delay of approximately 10 days and is characterized by inflammation of the hindpaws. In prophylatic studies, compounds were administered daily for 5 days, beginning on the sixth day after adjuvant injection. Hindpaw volumes were measured plethysmographically on days 14, 17 and 20. [formula]\nDaily intraperitoneal administration of compound B to AA rats produced a marked, dose related suppression of hindpaw inflammation with an ED50 of <10 mg/kg."}, "HIV-infected cells": {"system": "HIV-infected cells", "assay": "HIV syncytial assay", "format": "cell-based", "details": "syncytial co-cultivation assay", "experimental": "Chronically infected cells are employed as cell fusion centers in a rapid syncytial co-cultivation assay with uninfected […] target cells. Syncytia develop overnight, in contrast to the 3 to 7 days required for the cytopathic effect to occur in similar cultures infected with cell-free virus preparations. Inhibition of fusion by soluble CD4 and other potential anti-HIV compounds is assessed using the assay described by Truneh, et al., Cellular Immunology, 131:98 (1990)."}, "rabbit aortic strip": {"system": "rabbit aortic strip", "assay": "Inhibition of PDBu-induced contraction of rabbit aortic strip", "format": "cell-based", "details": "Oryctolagus cuniculus; PDBu as agonist", "text": "The effect of compounds of Formula (I) in this assay is examined using the protocol in Ohlstein, et al., J. Pharm. Exp. Ther., 250:548 (1989), except PDBu and compound B are substituted in place of the agonist and antagonist, respectively, therein described."}, "[2]": {"system": "mean arterial blood pressure", "assay": "Antihypertensive activity in conscious spontaneously hypertensive (SHR) rats", "format": "in vivo", "details": "Rattus norvegicus, intravenous, read-out: ED25, dose needed to reduce mean arterial pressure by 25 mm Hg", "experimental": "The antihypertensive activity of the compounds is measured by their ability to reduce mean arterial blood pressure in conscious, spontaneously hypertensive (SHR) rats. The animals are prepared with indwelling vascular catheters are described above (A) for the administration of compounds and direct recording of blood pressure. After complete recovery from surgery (4-5 days), the rats are placed into retainers to which they have become accustomed. Mean arterial pressure is recorded continuously prior to and following the intravenous administration of compounds. The dose of compound needed to reduce mean arterial pressure by 25 mm Hg (ED25) is used as an estimate of potency. The ED25 for compound B is about 15mg/kg."}, "[3]": {"system": "angiotensin II pressor response", "assay": "Inhibition of pressor response to angiotensin II in conscious rats", "format": "in vivo", "details": "Rattus norvegicus, intravenous, read-out: ED50, dose producing 50% inhibition of the control response to angiotensin II", "experimental": "Rats are prepared with indwelling femoral arterial and venous catheters and a stomach tube (Gellai, et al., Kidney Int. 15:419, 1979). Two to three days following surgery the rats are placed in restrainers and blood pressure is continuously monitored from the arterial catheter with a pressure transducer and recorded on a polygraph. The change in mean arterial pressure in response to intravenous injections of […] angiotensin II is compared at various time points prior to and following the administration of the compounds intravenously at doses of 0.1 to 300 mg/kg. The dose of compound needed to produce 50% inhibition of the control response to angiotensin II (ED50) is used to estimate the potency of the compounds. The ED50 of compound B is about 30 mg/kg."}, "platelets": {"system": "platelets", "assay": "Inhibition of PDBu-induced serotonin release from platelets", "format": "cell-based", "text": "The effect of compounds of Formula (I) in this assay is examined using the protocol in Sano, et al., J. Biol. Chem., 258:2010 (1983)."}, "Jurkat cells": {"system": "Jurkat cells", "assay": "Inhibition of PHA and ionophore-induced IL-2 production in Jurkat cells", "format": "cell-based", "details": "Homo sapiens, IL-2 ELISA", "experimental": "IL-2 produced in response to PHA and ionophore in the absence or presence of compound B is assayed by an ELISA kit purchased from Advanced Magnetics, Cambridge, MA (Human 1L-2-specific ELISA). The procedure is described by Moriya, N., Journal of Immunoassay, 8:131 (1987) and Robb, R., Hunam, J., Methods in Enzymology: Immunochemical Techniques, Section H (G.Disagato, J. Langone, and H. vanVanakis, eds.: Academic Press, N.Y., vol. 116, p. 493. 1985)."}}}
{"smiles": "NC1=NC(=O)/C(=C2\\CCNC(=O)c3[nH]c(Br)cc32)N1", "note": "[Compound B, 4-(2-amino-4-oxo-2-imidazolin-5-ylidene)-2-bromo-4,5,6,7-tetrahydropyrrolo(2,3-c)azepine-8-one]", "values": [{"measurement": "IC50", "setting": "[1]", "value": "~600", "unit": "nM"}, {"measurement": "Inhibition of the production of TNF", "setting": "TNF", "value": "inhibited the production of TNF"}, {"measurement": "Survival rate of animals with endotoxic shock", "setting": "TNF", "value": "increased the survival rate"}, {"measurement": "ED50", "setting": "hindpaw inflammation", "value": "< 10", "unit": "mg/kg"}, {"measurement": "Inhibition of fusion of HIV-infected cells to CD4-positive, uninfected cells", "setting": "HIV-infected cells", "value": "inhibited the fusion"}, {"measurement": "IC50", "setting": "rabbit aortic strip", "value": "500 to 800", "unit": "nM"}, {"measurement": "ED (25 mm Hg)", "setting": "[2]", "value": "~15", "unit": "mg/kg"}, {"measurement": "ED50", "setting": "[3]", "value": "~30", "unit": "mg/kg"}, {"measurement": "Inhibition of PDBu-induced serotonin release from platelets", "setting": "platelets", "value": "showed inhibition"}, {"measurement": "IC50", "setting": "Jurkat cells", "value": "~2000", "unit": "nM"}]}
